The test system of this test is post viral cough. Nature of the test: Informal single-subject study of post viral cough exacerbation. To be noted: self-administration, subjective.

Each structure is given as a SMILES string.

For the molecule `COc1ccc2c3c1O[C@H]1[C@@H](O)C=C[C@H]4[C@@H](C2)N(C)CC[C@@]341` [codeine], the subject-reported relief result is on record as “dramatic relief”.

These data come from US20230218661A1, “ISOTONIC OR HYPERTONIC SALT-BASED COMPOSITIONS, TREATMENTS, DEVICES, AND ARTICLES FOR DELIVERY OF SAME TO LARYNX” (SENSORY CLOUD, INC., priority 2022, published 2023).
